Here are results for two compounds from patent publication US20210100869A1, “COMPOSITIONS AND METHODS OF USING SAME FOR TREATING AMYOTROPHIC LATERAL SCLEROSIS (ALS)” (Immunity Pharma Ltd., priority 2018, published 2021).

Residues, ends and D or L forms follow the SMILES beside them.

Data set [1] has as its system ALS patients. Kind of data set: Open-label Phase 1/2a clinical trial, safety and tolerability (adverse events). The format is in vivo, human. To be noted: eight patients, IV daily, 1.7 mg/kg escalated to 3.2 mg/kg. Here is the method:
Dose-limiting Toxicity (DLT): DLT is defined as a ≥Grade 3 per subject which is IPL344 drug-related adverse event (using CTCAE Version v.4.03) occurring at any dosing, excluding: • Grade 3 adverse event of hypersensitivity (defined as sinus tachycardia, heavy breathing or rash along the veins or elsewhere) • A transient (resolving within 6 hours of onset) Grade 3 study drug-related adverse event.
Adverse events (AE)—The FDA defines an AE as “any untoward medical occurrence associated with the use of a drug in humans, whether or not considered drug related” (US Department of Health and Human Services, December 2012). Medical conditions present before first administration of IPL344 are considered pre-existing conditions and are documented as medical history. A new condition, event or the worsening of a pre-existing condition is considered an AE from the first dose of administration.
AEs are coded by CTCAE Version v4.03.
Safety Analysis: The Safety population is based on participants having received at least one dose of IPL-344 (exposed population), including participants prematurely withdrawn. AEs are classified by system-organ class and preferred term and then summarized by number and percentage of participants experiencing AEs. […] The IPL344 DLT and maximal tolerated dose (MTD) are assessed and presented. […]

For data set [2], the system named is ALS patients. To be noted: estimated moderate effect; cited from earlier work.

Regarding `CC(C)C[C@H](NC(=O)[C@@H]1CCCN1C(=O)[C@@H]1CCCN1C(=O)[C@@H](N)CC(C)C)C(=O)N1CCC[C@H]1C(=O)N[C@@H](Cc1ccc(O)cc1)C(=O)N1CCC[C@H]1C(=O)O` [IPL344, LPPLPYP] (H-LPPLPYP-OH), the “Safety and tolerability profile” value in data set [1] (28 days safety study) is “favorable safety and tolerability profile”. Besides, the Drug-related adverse events result in data set [1] is recorded as “No drug-related adverse events”.
For the compound `CC1=NN(c2ccccc2)C(=O)C1` [edaravone], the “Extension in patient survival” value in data set [2] is on record as “three months extension in patient survival”.
